Entries after “also recorded” stand apart in the source; their conditions may differ. Marks after values point to notes of the source that are not given here.
Legend:
Type in all cases: in vivo, human
[1] = tested on: overweight to obese males; assay: 21-day oral DEA study: fasting plasma glucose and OGTT glucose; conditions: for AUC Glucose: 180-minute OGTT, in mg·min/dL (unit assumed); for AUC Glucose / Fasting plasma glucose / Glucose 180 min: D21 post-treatment, 21 daily oral doses of 1 mg/kg, mean; for Glucose 180 min: OGTT
Text: Seventeen subjects were recruited by sampling a large population at risk for T2D (according to convenience sample; a statistical method of drawing representative data) to measure the changes in glucose, lipid and insulin measurements after an OGTT after the subjects had been treated for 21 days.
(§1) The subjects were overweight to obese males with body mass indices (BMIs) ranging from 27.2 to 43.6 kg/m^2, glycated hemoglobin A1c (HbA1c) of 5.0-6.2% and insulin levels of 8.8-52 μU/mL. The study was conducted by Clinical Trials of Texas, Inc. in San Antonio, TX. The cohort represented a population at risk for the development of T2D. The study was restricted to male participants to control for the variability of insulin sensitivity associated with the menstrual cycle. The subjects received 21 daily oral doses (“q1d”) of 1 mg/kg DEA. An OGTT, in which 75 grams of glucose in a total volume of 300 mL was administered orally to subjects, was performed on Day 0 and again on Day 21 and glucose measurements performed at −30, −5 and 0 min, insulin measurements at −30 and 0 min, and both glucose measurements and insulin measurements at 30, 60, 90, 120 and 180 minutes, where “0 min” is the time at which the glucose solution was administered. The 180-minute time point was selected to gain an early insight into the possible signal of drug action. Blood lipid levels (triglycerides, cholesterol, HDL, non-cholesterol HDL and LDL) were measured before the onset of treatment on Day 0 and again on Day 21. The error of the assays was <5% [36].
The results of the various marker measurements at Day 0 and Day 21 were compared using both the paired Students T-test and the Wilcoxon signed rank test. The results of both calculations are provided; the p-value from the paired Student T-test first, followed by the p-value from the Wilcoxon signed rank test. Generalized Estimating Equations and bootstrapping were used to verify the results generated with other methods. Fasting glucose was calculated as the average of the −30, −5, and 0-minute measurements and fasting insulin was calculated as the average of the −30- and 0-minute measurements. Spearman's correlation coefficient was calculated for the relationship between A1c and pre-treatment fasting plasma glucose versus post-treatment fasting plasma glucose. Area under the curve (AUC) was calculated over the 180-minute time span of the OGTT. All analyses were performed using the open language engine R 3.4.4. Statistical significance was at the α=0.05 level.
For measuring the effect of DEA on blood glucose, an assessment of fasting plasma glucose levels was relied upon, which is a measure that is commonly used as an indication that a subject may be diabetic. A level under 100 mg/dL is considered clinically normal while the range between 100 and 125 mg/dL is indicative of prediabetes. At the threshold of 100 mg/dL the human body begins to have a compromised insulin response to glucose shock. The OGTT was used, in which a standard dose of glucose was ingested by mouth, and blood samples were taken at specified time points after ingestion. Plasma blood glucose measurements were then obtained as a means of understanding the pharmacodynamic effects of DEA.

[2] = tested on: overweight to obese males; assay: 21-day oral DEA study: tolerability, adverse effects
Description: as §1

[3] = tested on: subject, with diet induced insulin resistance and diabetes; assay: Example 2: fasting blood lipids after buccal or gastric delivery of DEA; conditions: for TC, triglyceride, and Calc LDL levels and TC/HDL ratio: all tested dosages vs 0 mg/kg
Text: (§2) Described in this example is an evaluation of the effects of alkyl azelates, such as DEA, on certain markers of insulin resistance and dyslipidemia, namely, blood plasma glucose, insulin levels and/or lipid levels, when administered either for buccal delivery or for gastric delivery in a subject, with diet induced insulin resistance and diabetes with a BMI of approximately 27.
(§3) Diethyl azelate was synthesized from azelaic acid and ethyl alcohol sing the standard acid-catalyzed esterification followed by fractional distillation to produce DEA to 99% purity as determined by chromatography-mass spectrometry (GC-MS). The 99% distilled DEA distillation product was administered in unformulated, unencapsulated, etc. form (i.e., “as is”) for buccal delivery as indicated below.
(§4) For gastric delivery, the 99% DEA distillation product was placed in a hard gelatin capsule, size 00 (PureCaps USA, Philmont, NY) and administered for gastric delivery by swallowing with a drink of water.
Fasting blood levels of cholesterol, high density lipoprotein (HDL) cholesterol, and triglycerides were measured using Lipid Panel PTS test strips and CardioChek P-A test system (Polymer Technology Systems, Inc., Indianapolis, IN) according to the manufacturer's instructions.

[4] = tested on: subject, with diet induced insulin resistance and diabetes; assay: Example 2: plasma glucose in OGTT after buccal or gastric delivery of DEA; conditions: for plasma glucose levels during OGTT: 0, 1, 2, 4 hours, FIG. 16
Text: as §2, §3, §4
Fasting blood glucose levels were measured using UniStrip blood glucose test strips (UniStrip Technologies LLC, Charlotte, NC) and OneTouchUltra 2 blood glucose meter (LifeScan OneTouch, Tampa. FL).

[5] = buccal delivery, 0.5, 1, 2, 4 mg/kg vs 0 mg/kg, FIG. 8, greatest lowering at 0.5 mg/kg

## CCOC(=O)CCCCCCCC(=O)OCC [DEA, diethyl azelate]
[1]; 8 subjects with a fasting glucose≥100 mg/dL, Day 21 vs Day 0, p=0.033, p=0.06
  average decrease of fasting glucose: 6.06 mg/dL
[1]; All (n = 17), D0 25826
  AUC Glucose: 25356
[1]; FPG <100 mg/dL (n = 8), D0 23530
  AUC Glucose: 24475
[1]; FPG >100 mg/dL (n = 9), D0 27867
  AUC Glucose: 26138
[1]; High A1c (n = 9), D0 27313
  AUC Glucose: 25889
[1]; Low A1c (n = 8), D0 24153
  AUC Glucose: 24756
[1]; All (n = 17), D0 101.662
  Fasting plasma glucose: 99.732 mg/dL
[1]; FPG <100 mg/dL (n = 8), D0 92.769
  Fasting plasma glucose: 97.25 mg/dL
[1]; FPG >100 mg/dL (n = 9), D0 109.567, P < 0.01
  Fasting plasma glucose: 101.939** mg/dL
[1]; High A1c (n = 9), D0 105.156
  Fasting plasma glucose: 100.261 mg/dL
[1]; Low A1c (n = 8), D0 97.731
  Fasting plasma glucose: 99.138 mg/dL
[1]; All (n = 17), D0 100.315
  Glucose 180 min: 91.579 mg/dL
[1]; FPG <100 mg/dL (n = 8), D0 89.919
  Glucose 180 min: 86.494 mg/dL
[1]; FPG >100 mg/dL (n = 9), D0 109.556
  Glucose 180 min: 96.1 mg/dL
[1]; High A1c (n = 9), D0 108.978
  Glucose 180 min: 95.128 mg/dL
[1]; Low A1c (n = 8), D0 90.569
  Glucose 180 min: 87.588 mg/dL
[1]; entire cohort of 17 subjects, Day 21 vs Day 0, insignificant (p=0.962; p=0.96)
  increase of post-treatment fasting glucose: 0.11 mg/dL
[1]; entire cohort, not significant (p=0.136; 0.057)
  average decrease of glucose at 180 minutes: 9.14%
[1]; remaining 16 subjects (subject #1 excluded), p=0.002, 0.003
  decrease in 180 min plasma glucose after treatment: 13.5%
[1]; single outlier (subject #1)
  increase of glucose at 180 minutes: 58.6%
[1]; subject #1 (A1c 6.2%), decreased from 123.8
  fasting glucose level post-treatment: 116.3 mg/dL
[1]; subject #1 (A1c 6.2%), decreased from 200.0
  180 min glucose level post-treatment: 184.5 mg/dL
[1]; subject #2 (A1c 6.1%), from 88.3
  180 min glucose level post-treatment: 69 mg/dL
[1]; subject #3 (A1c 6.0%), from 146
  180 min glucose level post-treatment: 119 mg/dL
[1]; subjects with HbA1c≥5.6%, Day 21 vs Day 0, p=0.128, p=0.22
  average decrease of fasting glucose: 4.25 mg/dL
[1]; subset of 12 subjects, Day 21
  median decrease of glucose levels at 180 minutes: 25.3%
[1]; subset of 12 subjects, Day 21, p<0.001
  average decrease of glucose levels at 180 minutes: 21.7%
[2]; 17 subjects, 21 daily oral doses of 1 mg/kg, 1 mg/kg
  tolerability of daily oral DEA: well tolerated by all study subjects
[2]; 21-day study
  Hypoglycemia: Neither metformin nor DEA administration as presented herein induced hypoglycemia; also recorded: no effect
  Side effects: mild transient diarrhea (1/17 subjects)
[2]; first week of treatment, no other adverse effects reported
  adverse effects: only one subject experienced transient mild diarrhea
[3]; FIG. 17, T test
  improvement in total cholesterol and TC/HDL ratio, buccal relative to gastric delivery: statistically significant greater improvement
[3]; buccal delivery, 0.5, 1, 2, 4 mg/kg vs 0 mg/kg, FIG. 8
  HDL levels: increased at all DEA doses tested
[3]; [5]
  Triglycerides: lowered
  calculated LDL: lowered
  total cholesterol: lowered
[3]; buccal delivery, all dosages vs 0 mg/kg, FIG. 15
  HDL levels: elevated (i.e., improved)
[3]; buccal delivery, all tested amounts 0.5-4 mg/kg vs no DEA, FIG. 9, lowered the most with 0.5 mg/kg
  TC/HDL ratio: lowered (i.e., improved) TC/HDL ratio
[3]; buccal delivery, FIG. 15, more pronounced at 1 mg/kg
  TC, triglyceride, and Calc LDL levels and TC/HDL ratio: lowered (i.e., improved)
[3]; gastric delivery, all dosages vs 0 mg/kg, FIG. 15
  HDL levels: elevated (i.e., improved)
[3]; gastric delivery, FIG. 15, more pronounced at 0.25 mg/kg
  TC, triglyceride, and Calc LDL levels and TC/HDL ratio: lowered (i.e., improved)
[4]; at 0 hour and 4 hours after 75 grams of glucose in OGTT, FIG. 17, T test
  improvement in plasma glucose levels, buccal relative to gastric delivery: significantly significant greater improvement
[4]; buccal delivery vs 0 mg/kg, more pronounced at 0.5 mg/kg
  plasma glucose levels during OGTT: lowered (i.e., improved) plasma glucose levels at most tested DEA dosages and post-glucose ingestion time points
[4]; buccal, 0.5-4 mg/kg vs 0, 0, 1, 2, 4 hours after 75 grams of glucose, FIG. 10, most pronounced at 0.5 and 1 mg/kg
  plasma glucose concentrations during OGTT: lowered (improved) plasma glucose levels
[4]; buccal, 0.5-4 mg/kg vs 0, FIG. 11, most pronounced at 0.5 and 1 mg/kg
  plasma glucose concentrations during fasting OGTT: lowered (improved) plasma glucose levels
[4]; buccal, 0.5-4 mg/kg vs 0, FIG. 12, most pronounced at 0.5 mg/kg
  plasma glucose concentrations during OGTT at 1 hour: lowered (improved) plasma glucose levels in the setting of OGTT at all DEA dosage amounts
[4]; buccal, 0.5-4 mg/kg vs 0, FIG. 13, most pronounced at 0.5 and 1 mg/kg
  plasma glucose concentrations during OGTT at 2 hours: lowered (improved) plasma glucose levels in the setting of OGTT at all DEA dosage amounts
[4]; buccal, 0.5-4 mg/kg vs 0, FIG. 14
  plasma glucose concentrations during OGTT at 4 hours: lowered (improved) plasma glucose levels in the setting of OGTT at the 0.5 mg/kg, 1 mg/kg, and 4 mg/kg DEA dosage amounts
[4]; gastric delivery vs 0 mg/kg, more pronounced at 0.25 mg/kg
  plasma glucose levels during OGTT: lowered (i.e., improved) plasma glucose levels at most tested DEA dosages and post-glucose ingestion time points

Source: US12605354B2, “Azelaic acid esters in the treatment or prevention of dyslipidemia and associated conditions” (NEW FRONTIER LABS, LLC, priority 2020, dated 2026)
